Source: PubChem BioAssay AID256 (DTP/NCI, 2004)
“And” between values parts separate entries of the source, which are not always exact repeats. Equal values may be shown once. Toxic doses and inconclusive results are not listed.

System: CD2F1 mice, L1210 leukemia ip, survival T/C
Assay: NCI In Vivo Anticancer Drug Screen. Data for tumor model L1210 Leukemia (intraperitoneal) in CD2F1 (CDF1) mice
Conditions: higher = longer survival
Summary of the method: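 Transplantable tumor in mice; compound-treated vs vehicle-treated groups. Read-out = treated/control ratio of the measured endpoint.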

[1] = endpoint: mean survival time, dose: 50.0 mg/kg/injection, schedule: Q04DX003 (ip), vehicle: saline with Tween-80
[2] = endpoint: mean survival time, dose: 100.0 mg/kg/injection, schedule: Q04DX003 (ip), vehicle: saline with Tween-80
[3] = endpoint: mean survival time, dose: 50.0 mg/kg/injection, schedule: Q01DX009 (ip), vehicle: saline with Tween-80
[4] = endpoint: mean survival time, dose: 100.0 mg/kg/injection, schedule: Q01DX009 (ip), vehicle: saline with Tween-80
[5] = endpoint: mean survival time, dose: 200.0 mg/kg/injection, schedule: Q01DX009 (ip), vehicle: saline with Tween-80

CC(=O)OCCC/C(=C\c1ccc(Cl)c(Cl)c1)[N+](=O)[O-]
T/C (endpoint: mean survival time, dose: 100.0 mg/kg/injection, schedule: Q01DX001 (ip), vehicle: saline): 100 % of control

CC(NC1=C(Cl)C(=O)c2ccccc2C1=O)c1ccccc1 (stereo unspecified)
T/C (endpoint: mean survival time, dose: 25.0 mg/kg/injection, schedule: Q04DX003 (ip), vehicle: saline with Tween-80): 102 % of control | T/C [1]: 96 % of control | T/C [2]: 95 % of control

C=CCOc1c(C)cc(C)cc1C
T/C (endpoint: mean survival time, dose: 50.0 mg/kg/injection, schedule: Q01DX009 (ip), vehicle: Klucel (hydroxypropylcellulose) (HPC)): 113 % of control | T/C (endpoint: mean survival time, dose: 100.0 mg/kg/injection, schedule: Q01DX009 (ip), vehicle: Klucel (hydroxypropylcellulose) (HPC)): 94 % of control | T/C (endpoint: mean survival time, dose: 200.0 mg/kg/injection, schedule: Q01DX009 (ip), vehicle: Klucel (hydroxypropylcellulose) (HPC)): 102 % of control

Nc1ccn(C2CC(N)C(CO)O2)c(=O)n1 (stereo unspecified)
T/C (endpoint: median survival time, dose: 5.0 mg/kg/injection, schedule: Q06HX018 (ip), vehicle: water): 150 % of control | T/C (endpoint: median survival time, dose: 10.0 mg/kg/injection, schedule: Q06HX018 (ip), vehicle: water): 154 % of control and 162 % of control | T/C (endpoint: median survival time, dose: 20.0 mg/kg/injection, schedule: Q06HX018 (ip), vehicle: water): 198 % of control and 200 % of control | T/C (endpoint: median survival time, dose: 40.0 mg/kg/injection, schedule: Q06HX018 (ip), vehicle: water): 152 % of control and 174 % of control

CC1(C)CC(=O)C=C(N2CCC(CCCC3CCN(C4=CC(=O)CC(C)(C)C4)CC3)CC2)C1
T/C [3]: 102 % of control | T/C (endpoint: mean survival time, dose: 100.0 mg/kg/injection, schedule: Q01DX001 (ip), vehicle: saline with Tween-80): 100 % of control | T/C [4]: 95 % of control | T/C (endpoint: mean survival time, dose: 200.0 mg/kg/injection, schedule: Q01DX001 (ip), vehicle: saline with Tween-80): 93 % of control

CC(=O)CN(C(C)=O)c1ccccc1
T/C (endpoint: mean survival time, dose: 100.0 mg/kg/injection, schedule: Q04DX002 (ip), vehicle: saline with Tween-80): 105 % of control | T/C (endpoint: mean survival time, dose: 200.0 mg/kg/injection, schedule: Q04DX002 (ip), vehicle: saline with Tween-80): 97 % of control | T/C (endpoint: mean survival time, dose: 400.0 mg/kg/injection, schedule: Q04DX002 (ip), vehicle: saline with Tween-80): 109 % of control

C(=N\Nc1nc2ccccc2s1)/c1ccncc1
T/C (endpoint: mean survival time, dose: 100.0 mg/kg/injection, schedule: Q04DX003 (ip), vehicle: Klucel (hydroxypropylcellulose) (HPC)): 90 % of control | T/C (endpoint: mean survival time, dose: 200.0 mg/kg/injection, schedule: Q04DX003 (ip), vehicle: Klucel (hydroxypropylcellulose) (HPC)): 92 % of control | T/C (endpoint: mean survival time, dose: 400.0 mg/kg/injection, schedule: Q04DX003 (ip), vehicle: Klucel (hydroxypropylcellulose) (HPC)): 90 % of control

Cc1ccc(CCCC(=O)O)c(C)c1
T/C [2]: 104 % of control | T/C (endpoint: mean survival time, dose: 200.0 mg/kg/injection, schedule: Q04DX003 (ip), vehicle: saline with Tween-80): 93 % of control | T/C (endpoint: mean survival time, dose: 400.0 mg/kg/injection, schedule: Q04DX003 (ip), vehicle: saline with Tween-80): 98 % of control

CCOC/C=C/C(C)(C)C
T/C [3]: 102 % of control | T/C [4]: 102 % of control | T/C [5]: 97 % of control

CCOC(=O)C[S+](C)C
T/C (endpoint: mean survival time, dose: 75.0 mg/kg/injection, schedule: Q01DX001 (ip), vehicle: saline): 90 % of control | T/C (endpoint: mean survival time, dose: 150.0 mg/kg/injection, schedule: Q01DX001 (ip), vehicle: saline): 93 % of control

Nc1ncc2c(n1)SCC2
T/C (endpoint: mean survival time, dose: 200.0 mg/kg/injection, schedule: Q01DX001 (ip), vehicle: saline): 119 % of control

CNC(=O)Oc1coc(CCl)cc1=O
T/C (endpoint: mean survival time, dose: 25.0 mg/kg/injection, schedule: Q01DX009 (ip), vehicle: saline with Tween-80): 98 % of control | T/C [3]: 107 % of control | T/C [1]: 97 % of control | T/C [4]: 101 % of control | T/C [2]: 101 % of control

CCC1(O)C(=O)OCc2c1cc1n(c2=O)Cc2cc3ccc(C=O)cc3nc2-1 (stereo unspecified)
T/C (endpoint: median survival time, dose: 4.0 mg/kg/injection, schedule: Q04DX002 (ip), vehicle: saline with Tween-80): 98 % of control | T/C (endpoint: median survival time, dose: 8.0 mg/kg/injection, schedule: Q04DX002 (ip), vehicle: saline with Tween-80): 96 % of control | T/C (endpoint: median survival time, dose: 16.0 mg/kg/injection, schedule: Q04DX002 (ip), vehicle: saline with Tween-80): 98 % of control | T/C (endpoint: median survival time, dose: 32.0 mg/kg/injection, schedule: Q04DX002 (ip), vehicle: saline with Tween-80): 102 % of control

ONc1nc(NO)c2[nH]cnc2n1
T/C (endpoint: mean survival time, dose: 2.3 mg/kg/injection, schedule: Q01DX001 (ip), vehicle: other): 124 % of control | T/C (endpoint: mean survival time, dose: 3.5 mg/kg/injection, schedule: Q01DX001 (ip), vehicle: other): 122 % of control | T/C (endpoint: mean survival time, dose: 8.0 mg/kg/injection, schedule: Q01DX001 (ip), vehicle: other): 160 % of control and 168 % of control | T/C (endpoint: mean survival time, dose: 12.5 mg/kg/injection, schedule: Q01DX001 (ip), vehicle: other): 153 % of control | T/C (endpoint: mean survival time, dose: 29.0 mg/kg/injection, schedule: Q01DX001 (ip), vehicle: other): 156 % of control | T/C (endpoint: mean survival time, dose: 44.0 mg/kg/injection, schedule: Q01DX001 (ip), vehicle: other): 153 % of control and 172 % of control | T/C (endpoint: mean survival time, dose: 66.0 mg/kg/injection, schedule: Q01DX001 (ip), vehicle: other): 190 % of control | T/C (endpoint: mean survival time, dose: 100.0 mg/kg/injection, schedule: Q01DX001 (ip), vehicle: other): 202 % of control | T/C (endpoint: mean survival time, dose: 150.0 mg/kg/injection, schedule: Q01DX001 (ip), vehicle: other): 182 % of control

Cc1cccc(C(=O)CC(O)(C(F)(F)F)C(F)(F)F)c1
T/C [4]: 98 % of control | T/C [5]: 95 % of control | T/C (endpoint: mean survival time, dose: 400.0 mg/kg/injection, schedule: Q01DX009 (ip), vehicle: saline with Tween-80): 104 % of control
